The values that follow come from patent publication US8871753B2, “Macrocyclic compounds and their use as kinase inhibitors” (Incyte Corporation, priority 2008, dated 2014).

Molecules are shown by their SMILES. Where a name gives a salt, the structure may show the parent alone. Read-outs that look alike come from different tables or passages of the source.

The IC50 is the concentration that gives 50% inhibition.

Holding throughout (type): biochemical
Assay [1] addresses T1, human JAK1 (a.a. 837-1142) (Homo sapiens, UniProt P23458).
T1 construct: human JAK1 (a.a. 837-1142); His tag (N); made in house; host or cells: insect cells (baculovirus)
Briefly: In vitro JAK kinase assay (HTRF, phosphorylation of a biotinylated peptide), JAK1. The note with it: read-out: JAK1 IC50. In outline: (§1)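 Phosphorylation of a biotinylated peptide by the JAK kinase domain, detected by HTRF with Eu-Py20 and SA-APC. ATP was 90 μM for JAK1, 30 μM for JAK2 and 3 μM for JAK3. Reactions ran 1 h at room temperature and were stopped with EDTA, followed by 40 min antibody binding.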
In general terms: In TR-FRET formats the signal depends on donor and acceptor labels being close together.

Assay [2] deals with T2, human JAK2 (a.a. 828-1132) (Homo sapiens, UniProt O60674).
T2 construct: JAK2 (a.a. 828-1132); His tag (N); made in house; host or cells: insect cells (baculovirus)
T2 sequence (O60674 828-1132): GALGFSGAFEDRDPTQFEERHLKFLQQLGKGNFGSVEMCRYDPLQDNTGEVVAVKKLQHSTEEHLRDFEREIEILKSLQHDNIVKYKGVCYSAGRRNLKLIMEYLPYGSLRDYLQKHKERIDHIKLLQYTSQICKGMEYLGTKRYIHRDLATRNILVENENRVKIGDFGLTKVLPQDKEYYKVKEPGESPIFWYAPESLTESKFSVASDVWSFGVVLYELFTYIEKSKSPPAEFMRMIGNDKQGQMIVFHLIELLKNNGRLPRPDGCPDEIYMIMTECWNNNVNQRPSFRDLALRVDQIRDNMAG
Description: In vitro JAK kinase assay (HTRF, phosphorylation of a biotinylated peptide), JAK2. In outline:
as §1

The target in assay [3] is T3, human JAK3 (a.a. 781-1124) (Homo sapiens, UniProt P52333).
T3 construct: JAK3 (a.a. 781-1124); His tag (N); made in house; host or cells: insect cells (baculovirus)
T3 sequence (P52333 781-1124): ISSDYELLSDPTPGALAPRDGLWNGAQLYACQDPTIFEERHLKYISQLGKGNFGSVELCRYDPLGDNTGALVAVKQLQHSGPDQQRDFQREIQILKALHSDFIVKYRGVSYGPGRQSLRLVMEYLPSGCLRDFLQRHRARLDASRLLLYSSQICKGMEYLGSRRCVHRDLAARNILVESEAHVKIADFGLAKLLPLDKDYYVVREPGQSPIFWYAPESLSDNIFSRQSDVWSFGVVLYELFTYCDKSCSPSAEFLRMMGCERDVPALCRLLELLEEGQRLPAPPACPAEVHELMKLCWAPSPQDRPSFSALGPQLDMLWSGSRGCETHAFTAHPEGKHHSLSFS
Briefly: In vitro JAK kinase assay (HTRF, phosphorylation of a biotinylated peptide), JAK3. The method in brief: as §1

The next assay concerns the target TYK2 (Homo sapiens, UniProt P29597). Briefly: TYK2 kinase inhibition (Table A1).
For assay [4], the target named is T4, Recombinant Human Anaplastic Lymphoma Kinase (Homo sapiens, UniProt Q9UM73).
T4 construct: purchased Invitrogen, Carlsbad, Calif
T4 sequence (Q9UM73 19-1620): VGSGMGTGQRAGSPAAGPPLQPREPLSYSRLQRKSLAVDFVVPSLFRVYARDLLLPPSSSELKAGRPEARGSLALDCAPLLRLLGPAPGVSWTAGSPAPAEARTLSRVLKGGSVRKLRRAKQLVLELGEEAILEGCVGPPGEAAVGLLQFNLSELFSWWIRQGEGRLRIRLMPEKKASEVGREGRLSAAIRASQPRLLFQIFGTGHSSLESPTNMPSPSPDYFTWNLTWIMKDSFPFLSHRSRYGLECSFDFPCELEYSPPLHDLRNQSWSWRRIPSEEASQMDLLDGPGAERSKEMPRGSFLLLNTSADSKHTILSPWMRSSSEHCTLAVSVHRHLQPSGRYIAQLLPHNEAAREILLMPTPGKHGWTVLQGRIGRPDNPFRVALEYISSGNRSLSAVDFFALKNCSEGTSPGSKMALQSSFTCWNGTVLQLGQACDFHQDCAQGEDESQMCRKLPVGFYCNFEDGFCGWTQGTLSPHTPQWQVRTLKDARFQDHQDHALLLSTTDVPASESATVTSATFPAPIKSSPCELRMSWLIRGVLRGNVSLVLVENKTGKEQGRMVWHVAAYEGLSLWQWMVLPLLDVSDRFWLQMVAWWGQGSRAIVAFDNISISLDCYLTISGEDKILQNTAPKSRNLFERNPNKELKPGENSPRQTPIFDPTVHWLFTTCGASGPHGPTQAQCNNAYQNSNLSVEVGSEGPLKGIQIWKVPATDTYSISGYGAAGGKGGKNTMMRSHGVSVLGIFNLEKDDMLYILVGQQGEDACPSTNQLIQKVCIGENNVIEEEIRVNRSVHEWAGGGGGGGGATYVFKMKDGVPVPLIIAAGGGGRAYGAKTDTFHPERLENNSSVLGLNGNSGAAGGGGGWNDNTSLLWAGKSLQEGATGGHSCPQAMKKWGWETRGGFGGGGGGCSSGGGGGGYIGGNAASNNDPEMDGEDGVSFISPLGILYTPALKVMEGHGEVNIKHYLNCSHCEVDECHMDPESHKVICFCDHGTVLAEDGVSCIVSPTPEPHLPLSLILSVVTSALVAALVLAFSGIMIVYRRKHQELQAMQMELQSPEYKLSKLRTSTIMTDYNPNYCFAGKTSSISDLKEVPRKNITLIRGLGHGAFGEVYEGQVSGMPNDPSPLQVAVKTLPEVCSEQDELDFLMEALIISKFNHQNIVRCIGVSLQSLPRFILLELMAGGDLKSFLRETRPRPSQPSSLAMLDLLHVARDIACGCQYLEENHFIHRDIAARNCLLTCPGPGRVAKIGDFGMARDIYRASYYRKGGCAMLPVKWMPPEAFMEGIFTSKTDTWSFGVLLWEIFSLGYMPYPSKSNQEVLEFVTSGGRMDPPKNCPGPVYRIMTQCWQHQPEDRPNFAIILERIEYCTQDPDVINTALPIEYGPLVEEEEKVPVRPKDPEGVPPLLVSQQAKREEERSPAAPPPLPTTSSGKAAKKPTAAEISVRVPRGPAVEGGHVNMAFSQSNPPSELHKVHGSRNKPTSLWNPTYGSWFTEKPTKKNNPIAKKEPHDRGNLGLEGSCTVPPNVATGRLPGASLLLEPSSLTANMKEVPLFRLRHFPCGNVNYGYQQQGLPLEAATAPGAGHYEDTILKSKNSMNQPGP
Description: ALK HTRF kinase assay. The method in brief:
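Recombinant human ALK with biotinylated peptide substrate; phosphorylation detected by HTRF using Eu-labelled anti-phosphotyrosine antibody and streptavidin-allophycocyanin. IC50 from a sigmoidal fit with Hill slope.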

Setting [5] is: method AA1 (90 μM ATP) or AA2 (1000 μM ATP), not stated per value.
Setting [6] is: method AA1 (30 μM ATP) or AA2 (1000 μM ATP), not stated per value.
The mark [7] stands for this setting: method AA1 (3 μM ATP) or AA2 (1000 μM ATP), not stated per value.
[8] abbreviates: compound at 500 nM or 1 mM, 90 μM ATP.
The mark [9] stands for this setting: compound at a concentration of 500 nM or 1 mM (not specified), cells shown as percentage.

T1 sequence (P23458 849-1154): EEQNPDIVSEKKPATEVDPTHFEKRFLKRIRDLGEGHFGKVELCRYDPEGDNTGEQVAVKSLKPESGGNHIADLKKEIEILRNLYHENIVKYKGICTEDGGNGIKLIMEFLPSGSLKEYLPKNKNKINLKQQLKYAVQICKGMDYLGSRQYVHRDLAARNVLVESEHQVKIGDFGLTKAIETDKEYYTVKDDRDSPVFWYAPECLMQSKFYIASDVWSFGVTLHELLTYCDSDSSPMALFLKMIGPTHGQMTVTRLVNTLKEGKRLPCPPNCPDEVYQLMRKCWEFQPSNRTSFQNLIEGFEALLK
TYK2, sequence (P29597 whole entry): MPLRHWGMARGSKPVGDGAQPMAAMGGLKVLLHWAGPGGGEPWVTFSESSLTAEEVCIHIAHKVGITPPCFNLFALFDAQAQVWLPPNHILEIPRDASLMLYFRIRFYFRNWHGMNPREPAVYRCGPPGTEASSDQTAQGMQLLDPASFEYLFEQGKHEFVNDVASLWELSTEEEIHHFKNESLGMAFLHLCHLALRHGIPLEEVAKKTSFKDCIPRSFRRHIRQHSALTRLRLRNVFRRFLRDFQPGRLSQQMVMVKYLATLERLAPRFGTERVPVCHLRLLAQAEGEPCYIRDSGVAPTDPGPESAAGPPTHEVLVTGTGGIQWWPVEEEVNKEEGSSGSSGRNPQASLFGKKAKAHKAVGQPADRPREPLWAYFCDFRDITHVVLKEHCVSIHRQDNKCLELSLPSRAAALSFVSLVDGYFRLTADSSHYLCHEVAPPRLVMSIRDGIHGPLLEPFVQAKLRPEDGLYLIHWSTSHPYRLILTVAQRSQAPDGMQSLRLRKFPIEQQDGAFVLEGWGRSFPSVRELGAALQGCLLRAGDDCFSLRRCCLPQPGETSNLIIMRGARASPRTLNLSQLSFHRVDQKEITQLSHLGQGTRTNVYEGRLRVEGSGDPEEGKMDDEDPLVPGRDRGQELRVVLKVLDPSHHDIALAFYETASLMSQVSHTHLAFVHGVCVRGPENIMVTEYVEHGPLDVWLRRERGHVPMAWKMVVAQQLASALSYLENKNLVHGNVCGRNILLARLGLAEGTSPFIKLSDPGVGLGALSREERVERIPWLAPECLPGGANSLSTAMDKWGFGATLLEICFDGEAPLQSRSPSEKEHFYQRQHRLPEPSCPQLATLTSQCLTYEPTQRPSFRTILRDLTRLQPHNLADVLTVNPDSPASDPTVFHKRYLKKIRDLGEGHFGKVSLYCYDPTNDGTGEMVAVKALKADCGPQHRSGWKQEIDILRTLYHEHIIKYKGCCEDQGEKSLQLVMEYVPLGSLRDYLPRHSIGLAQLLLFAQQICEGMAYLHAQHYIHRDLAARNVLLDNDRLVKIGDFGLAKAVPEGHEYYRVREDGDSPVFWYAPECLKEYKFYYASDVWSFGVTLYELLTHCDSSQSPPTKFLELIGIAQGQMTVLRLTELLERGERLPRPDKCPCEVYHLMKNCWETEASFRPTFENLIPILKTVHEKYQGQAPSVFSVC

For `O=C(Nc1ccc2cc1CCc1cccc(c1)Nc1ncc(Cl)c(n1)N2)C1CCN(C(=O)c2ccccc2)CC1` [Example A30, 1-Benzoyl-N-[6-chloro-2,4,8,22-tetraazatetracyclo[14.3.1.1(3,7).1(9,13)]docosa-1(20),3(22),4,6,9(21),10,12,16,18-nonaen-12-yl]piperidine-4-carboxamide trifluoroacetate], the IC50 came out at 28 nM in assay [1] (setting [5]), 45 nM in assay [2] (setting [6]), 110 nM in assay [3] (setting [7]) and 84 nM against TYK2. For the same compound, the “ALK % of inhibition at a concentration of 500 nM or 1 mM” value (shortened to “ALK % of inhibition”) in assay [4] (setting [8]) was 34%.
On to `O=C(CC1CCN(c2cnccn2)CC1)Nc1ccc2cc1CCc1cncc(c1)Nc1ncc(Cl)c(n1)N2` [Example A171, N-[6-Chloro-2,4,8,18,22-pentaazatetracyclo[14.3.1.1(3,7).1(9,13)]docosa-1(20),3(22),4,6,9(21),10,12,16,18-nonaen-12-yl]-2-(1-pyrazin-2-ylpiperidin-4-yl)acetamide tris(trifluoroacetate)], for which the IC50 was 12 nM in assay [1] (setting [5]), 118 nM in assay [2] (setting [6]), greater than 1000 nM in assay [3] (setting [7]) and 300 nM against TYK2. Moreover, the “ALK % of inhibition” value in assay [4] (setting [8]) amounted to 29%.
With `CCOC(=O)c1coc(Nc2ccc3cc2CCc2cccc(c2)Nc2ncc(Cl)c(n2)N3)n1` [Example B278, Ethyl 2-{[6-chloro-2,4,8,22-tetraazatetracyclo[14.3.1.1(3,7).1(9,13)]docosa-1(20),3(22),4,6,9(21),10,12,16,18-nonaen-12-yl]amino}-1,3-oxazole-4-carboxylate bis(trifluoroacetate)], the half-maximal inhibitory concentration (IC50) in assay [1] (Table B1) is 47 nM; in assay [2] (Table B1) it was 126 nM; in assay [3] (Table B1), 1850 nM; against TYK2 (Table B1), 222 nM. The “ALK % of inhibition” value in assay [4] (setting [9]) is 10%.
`Clc1cnc2nc1Nc1cccc(c1)NCCOc1cccc(c1)N2` [Example D72, 6-Chloro-17-oxa-2,4,8,14,24-pentaazatetracyclo[16.3.1.1(3,7).1(9,13)]tetracosa-1(22),3(24),4,6,9(23),10,12,18,20-nonaene bis(trifluoroacetate)]: the IC50 was determined as 12 nM in assay [1] (Table D1); 2.2 nM in assay [2] (Table D1); 7.4 nM in assay [3] (Table D1); 6.9 nM against TYK2 (Table D1); 772 nM in assay [4] (Table D1, 90 μM ATP).
In the case of `O=C(CC1CCN(c2nc3cccnc3o2)CC1)Nc1ccc2cc1CCc1cncc(c1)Nc1ncc(Cl)c(n1)N2` [Example A158, N-[6-Chloro-2,4,8,18,22-pentaazatetracyclo[14.3.1.1(3,7).1(9,13)]docosa-1(20),3(22),4,6,9(21),10,12,16,18-nonaen-12-yl]-2-(1-[1,3]oxazolo[5,4-b]pyridin-2-ylpiperidin-4-yl)acetamide tris(trifluoroacetate)], the IC50 was 11 nM in assay [1] (setting [5]), 244 nM in assay [2] (setting [6]), greater than 10000 nM in assay [3] (setting [7]) and 675 nM at TYK2. Besides, in assay [4] (setting [8]), the “ALK % of inhibition” value is reported as 18%.
With `COCC(C)NC(=O)Nc1ccc2cc1CCc1cccc(c1)Nc1ncc(Cl)c(n1)N2` (stereo not drawn) [Example B247, N-[6-Chloro-2,4,8,22-tetraazatetracyclo[14.3.1.1(3,7).1(9,13)]docosa-1(20),3(22),4,6,9(21),10,12,16,18-nonaen-12-yl]-N′-(2-methoxy-1-methylethyl)ureatrifluoroacetate], the IC50 in assay [1] (Table B1) is 6.5 nM; in assay [2] (Table B1), 4 nM; in assay [3] (Table B1) it was 73 nM; against TYK2 (Table B1), 20 nM. The “ALK % of inhibition” value in assay [4] (setting [9]) is given as 7.5%.
With `O=C(Nc1ccc2cc1CCc1cccc(c1)Nc1ncc(Cl)c(n1)N2)Nc1ccccc1OC(F)(F)F` [Example B131, N-[6-Chloro-2,4,8,22-tetraazatetracyclo[14.3.1.1(3,7).1(9,13)]docosa-1(20), 3(22),4,6,9(21),10,12,16,18-nonaen-12-yl]-N′-[2-(trifluoromethoxy)phenyl]urea trifluoroacetate], the IC50 in assay [1] (Table B1) is 7.3 nM; in assay [2] (Table B1), 13 nM; in assay [3] (Table B1) it was 63 nM; against TYK2 (Table B1), 33 nM. The “ALK % of inhibition” value in assay [4] (setting [9]) is given as 5.9%.
Take `CC(=O)N1CCC(CC(=O)Nc2ccc3cc2CCc2cncc(c2)Nc2ncc(Cl)c(n2)N3)CC1` [Example A76, 2-(1-Acetylpiperidin-4-yl)-N-[6-chloro-2,4,8,18,22-pentaazatetracyclo[14.3.1.1(3,7).1(9,13)]docosa-1(20),3(22),4,6,9(21),10,12,16,18-nonaen-12-yl]acetamide bis(trifluoroacetate)]: the IC50 worked out at 2 nM in assay [1] (setting [5]), 4.1 nM in assay [2] (setting [6]), 124 nM in assay [3] (setting [7]) and 3.9 nM on TYK2. In addition, in assay [4] (setting [8]), the “ALK % of inhibition” value worked out at 21%.
For the compound `O=C(CC1CCN(C(=O)Nc2ccc(F)cc2)CC1)Nc1ccc2cc1CCc1cncc(c1)Nc1ncc(Cl)c(n1)N2` [Example A148, 4-(2-{[6-Chloro-2,4,8,18,22-pentaazatetracyclo[14.3.1.1(3,7).1(9,13)]docosa-1(20),3(22),4,6,9(21),10,12,16,18-nonaen-12-yl]amino}-2-oxoethyl)-N-(4-fluorophenyl)piperidine-1-carboxamide bis(trifluoroacetate)], the IC50 in assay [1] (setting [5]) was 0.2 nM; in assay [2] (setting [6]) it was 1.5 nM; in assay [3] (setting [7]) it was greater than 100 nM; at TYK2 it was 3.9 nM. Besides, the “ALK % of inhibition” value in assay [4] (setting [8]) was found to be 42%.
Take `O=C(Nc1ccc2cc1CCc1cncc(c1)Nc1ncc(Cl)c(n1)N2)N[C@H]1CCNC1` [Example B25, N-[6-Chloro-2,4,8,18,22-pentaazatetracyclo[14.3.1.1(3,7).1(9,13)]docosa-1(20),3(22),4,6,9(21),10,12,16,18-nonaen-12-yl]-N′-[(3S)-pyrrolidin-3-yl]urea trihydrochloride]: the IC50 is 12 nM in assay [1] (Table B1), 36 nM in assay [2] (Table B1), 153 nM in assay [3] (Table B1) and 50 nM against TYK2 (Table B1). The “ALK % of inhibition” value in assay [4] (setting [9]) turned out to be 14%.
As to `Clc1cnc2nc1Nc1cccc(c1)CNc1cccc(c1)N2` [Example D17, 6-Chloro-2,4,8,15,22-pentaazatetracyclo[14.3.1.1(3,7).1(9,13)]docosa-1(20),3(22),4,6,9(21),10,12,16,18-nonaene bis(trifluoroacetate)], the IC50 was 63 nM in assay [1] (Table D1); 32 nM in assay [2] (Table D1); 165 nM in assay [3] (Table D1); 77 nM at TYK2 (Table D1); greater than 1000 nM in assay [4] (Table D1, 90 μM ATP).
`O=C(NCCNC(=O)c1ccccn1)Nc1ccc2cc1CCc1cccc(c1)Nc1ncc(Cl)c(n1)N2` [Example B190, N-{2-[({[6-Chloro-2,4,8,22-tetraazatetracyclo[14.3.1.1(3,7).1(9,13)]docosa-1(20),3(22),4,6,9(21),10,12,16,18-nonaen-12-yl]amino}carbonyl)amino]ethyl}pyridine-2-carboxamide trifluoroacetate]: the IC50 in assay [1] (Table B1) stood at 5 nM; in assay [2] (Table B1), 10 nM; in assay [3] (Table B1), 61 nM; against TYK2 (Table B1), 19 nM. Further, the “ALK % of inhibition” value in assay [4] (setting [9]) turned out to be 11%.
With `Clc1cnc2nc1Nc1cccc(c1)OCCSc1cccc(c1)N2` [Example D15, 6-Chloro-14-oxa-17-thia-2,4,8,24-tetraazatetracyclo[16.3.1.1(3,7).1(9,13)]tetracosa-1(22),3(24),4,6,9(23),10,12,18,20-nonaene trifluoroacetate], the IC50 in assay [1] (Table D1) was 93 nM; in assay [2] (Table D1) it was 61 nM; in assay [3] (Table D1), 135 nM; against TYK2 (Table D1), 88 nM; in assay [4] (Table D1, 90 μM ATP), greater than 10000 nM.
With `Clc1cnc2nc1Nc1cccc(c1)SCCOc1cccc(c1)N2` [Example D11, 6-Chloro-17-oxa-14-thia-2,4,8,24-tetraazatetracyclo[16.3.1.1(3,7).1(9,13)]tetracosa-1(22),3(24),4,6,9(23),10,12,18,20-nonaene trifluoroacetate], the IC50 worked out at 3.4 nM in assay [1] (Table D1); 5.4 nM in assay [2] (Table D1); 24 nM in assay [3] (Table D1); 9.9 nM at TYK2 (Table D1); 480 nM in assay [4] (Table D1, 90 μM ATP).
Turning to `Cc1ccc2cc1Nc1ncc(Cl)c(n1)Nc1cccc(c1)CC2` [Example A7, 6-Chloro-19-methyl-2,4,8,22-tetraazatetracyclo[14.3.1.1(3,7).1(9,13)]docosa-1(20),3(22),4,6,9(21),10,12,16,18-nonaene trifluoroacetate], the IC50 in assay [1] (setting [5]) amounted to 128 nM; in assay [2] (setting [6]), 32 nM; in assay [3] (setting [7]) it was 300 nM; against TYK2, 150 nM; in assay [4] (90 μM ATP) it was 523 nM.
